Consider one cell line from the supplement of paper PMC10307832.

Holding throughout (assay): relative viability (nuclei count vs DMSO), 5 days (fraction); higher = more cells survive
Compound in test [1]: C1CC2=C(C1)C=C(C=C2)OC3=NC(=C4C(=N3)N(C=N4)CC5=CC=C(C=C5)C6=CC=CC=C6)N[C@@H](CC7=CC=CC=C7)CO [QS11] + O=C(c1cc(Cc2n[nH]c(=O)c3ccccc23)ccc1F)N1CCN(C(=O)C2CC2)CC1 [Olaparib] (partner 8 µM)
Summed up:
(§1)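 Each reported value is a median over duplicate plates. It expresses relative viability: treated-well nuclei count divided by vehicle-well nuclei count. Lung cancer cell lines in 1536-well plates were dosed by pin tool a day after seeding, alone with one drug or with a fixed anchor-drug dose plus five library-drug doses (not always all listed) in √10 steps, and nuclei were counted after 5 days.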

Compound in test [2]: CC1=C(C=C(C=C1)NC(=O)C2=CC(=CC=C2)C(C)(C)C#N)NC3=CC4=C(C=C3)N=CN(C4=O)C [AZ628] + CC1(C)CCC(c2ccc(Cl)cc2)=C(CN2CCN(c3ccc(C(=O)NS(=O)(=O)c4ccc(N[C@H](CCN5CCOCC5)CSc5ccccc5)c(S(=O)(=O)C(F)(F)F)c4)cc3)CC2)C1 [Navitoclax] (partner 0.5 µM)
Summed up:
as §1

Compound in test [3]: C[As](C)SC[C@H](NC(=O)CC[C@H](N)C(=O)O)C(=O)NCC(=O)O [Darinaparsin] + CC(=O)c1c(C)c2cnc(Nc3ccc(N4CCNCC4)cn3)nc2n(C2CCCC2)c1=O [Palbociclib] (partner 0.5 µM)
The method in brief:
as §1

Compound in test [4]: C[As](C)SC[C@H](NC(=O)CC[C@H](N)C(=O)O)C(=O)NCC(=O)O [Darinaparsin] + Nc1nc2[nH]cc(CCc3ccc(C(=O)N[C@@H](CCC(=O)O)C(=O)O)cc3)c2c(=O)[nH]1 [Pemetrexed] (partner 0.2 µM)
The method in brief: as §1

Compound in test [5]: C1CC2=C(C1)C=C(C=C2)OC3=NC(=C4C(=N3)N(C=N4)CC5=CC=C(C=C5)C6=CC=CC=C6)N[C@@H](CC7=CC=CC=C7)CO [QS11] + COc1cccc2cc(-c3nc([C@H]4CC[C@H](C(=O)O)CC4)n4ncnc(N)c34)[nH]c12 [OSI-027] (partner 0.5 µM)
Summed up: as §1

On to LCLC-97TM1, for which the relative viability in test [1] (first compound 0.253 µM) came to 0.428; in test [1] (first compound 2.53 µM), 0.495; in test [1] (first compound 8 µM) it was 0.464; in test [2] (first compound 0.08 µM), 0.86; in test [2] (first compound 0.253 µM) it was 0.436; in test [2] (first compound 0.8 µM) it was 0.48. Also, the relative viability in test [2] (first compound 2.53 µM) was found to be 0.437; in test [2] (first compound 8 µM), 0.255; in test [3] (first compound 0.08 µM), 0.317; in test [3] (first compound 0.8 µM), 0.2; in test [3] (first compound 2.53 µM), 0.237; in test [3] (first compound 8 µM) it was 0.251. In addition, the relative viability stood at 0.162 in test [4] (first compound 0.08 µM); 0.177 in test [4] (first compound 0.8 µM); 0.166 in test [4] (first compound 2.53 µM); 0.185 in test [4] (first compound 8 µM); 0.405 in test [5] (first compound 0.08 µM); 0.698 in test [5] (first compound 0.253 µM). Also, the figures for the relative viability in test [5] (first compound 2.53 µM) and in test [5] (first compound 8 µM) were 0.565 and 0.588, respectively.
